Assay [1] deals with multidrug resistant Streptococcus pyogenes (#OTTO 209). In words: Mouse protection test against multidrug resistant Streptococcus pyogenes. To be noted: for Protective % / Number of Alive: repeated at 4 hours, 7 days; for Number of Alive: of 5 mice. The class given is in vivo, Streptococcus pyogenes; female CD-1 mice. The source says: The mouse protection test is an industry standard for measuring the efficacy of a test compound in vivo [for examples of this model see J. J. Clement, et al., Antimicrobial Agents and Chemotherapy, 38 (5), 1071-1078, (1994)]. As exemplified below, this test was used to show the in vivo efficacy of the compounds of the present invention against bacteria.
The in vivo activity of compound X against multidrug resistant bacteria was established by infecting female CD-1 mice (Charles River Lab, Massachusettes) weighing 20-24 g intraperitoneally with multidrug resistant Streptococcus pyogenes inoculum. The inoculum was prepared from multidrug resistant Streptococcus pyogenes (resistant to erythromycin, tetracycline, and chloramphenicol, #OTTO 209 obtained from Dr. Pentti Huovinen, National Public Health Institute, Finland) which was cultured in brain heart infusion broth (Baltimore Biological Laboratories, Maryland) at 37° C. for 2 hr, and then 0.1 ml of the culture was diluted with the medium to 1.0 ml for reading its OD at 600 nm (0.12). The turbidity of a 0.5 McFarland standard is equivalent to OD600 0.1, or 10^8 cfu/ml. Then, 4×10^8 cfu of the bacteria (333 μl was added to 20 ml of phosphate buffered saline (Sigma P-0261 ) containing 10 % hog gastric mucin (Sigma M-2378). All animals were injected with 0.5 ml of the inoculum, equivalent to 10^7 cfu/mouse which is the dose causing ~100% death of the animals without treatment.
Compound X (60 mg) was dissolved in 6.0 ml of 0.05M Tris.HCl (pH 8.8) to give a solution of 10 mg/ml. This solution was serially diluted two times with 0.05M Tris.HCl by 5-fold (1.0 ml to 5.0 ml) to give 2 and 0.4 mg/ml solutions. The known antibiotic vancomycin HCl (Sigma V-2002, in normal saline, 1 mg/ml, pH 6.0-7.0) was used as a positive control. All the solutions were filtered with 0.2 μm Nalgene syringe filter. Immediately after the bacterial inoculation, group 1 animals were subcutaneously (sc) injected with 0.05M Tris.HCl (no antibiotic) and groups 2 to 4 were given compound X sc at 4, 20 and 100 mg/kg, respectively. Group 5 animals received vancomycin sc at 10 mg/kg. These injections were repeated once at 4 hours after the inoculation for the respective groups. The injection volume at each time was 10 ml per kilogram of body weight. The 50% protective dose (PD50) is calculated on the basis of the number of mice surviving 7 days after inoculation.

The target in assay [2] is E. Coli. IleRS (isoleucyl-tRNA synthetase) (Escherichia coli, UniProt P00956). In words: Inhibition of isoleucyl-tRNA synthetase (aminoacylation of tRNA with [3H]isoleucine). The settings on record: read-out: IC50 E.Coli. IleRS; E. coli enzyme; irreversible inhibitors: values are 50% of the active enzyme concentration. In kind it is biochemical. In a few lines:
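Enzyme (0.08-2.0 nM, preferably 0.4 nM) preincubated 20 min at 25° C. with compound, then reacted at 25° C. with 4 mM ATP, 5-20 μM [3H]isoleucine, 90 μM crude or 2 μM specific tRNA in HEPES pH 7.5. TCA-precipitable radioactivity counted; IC50 relative to uninhibited activity.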

E. Coli. IleRS (isoleucyl-tRNA synthetase), sequence (P00956 whole entry): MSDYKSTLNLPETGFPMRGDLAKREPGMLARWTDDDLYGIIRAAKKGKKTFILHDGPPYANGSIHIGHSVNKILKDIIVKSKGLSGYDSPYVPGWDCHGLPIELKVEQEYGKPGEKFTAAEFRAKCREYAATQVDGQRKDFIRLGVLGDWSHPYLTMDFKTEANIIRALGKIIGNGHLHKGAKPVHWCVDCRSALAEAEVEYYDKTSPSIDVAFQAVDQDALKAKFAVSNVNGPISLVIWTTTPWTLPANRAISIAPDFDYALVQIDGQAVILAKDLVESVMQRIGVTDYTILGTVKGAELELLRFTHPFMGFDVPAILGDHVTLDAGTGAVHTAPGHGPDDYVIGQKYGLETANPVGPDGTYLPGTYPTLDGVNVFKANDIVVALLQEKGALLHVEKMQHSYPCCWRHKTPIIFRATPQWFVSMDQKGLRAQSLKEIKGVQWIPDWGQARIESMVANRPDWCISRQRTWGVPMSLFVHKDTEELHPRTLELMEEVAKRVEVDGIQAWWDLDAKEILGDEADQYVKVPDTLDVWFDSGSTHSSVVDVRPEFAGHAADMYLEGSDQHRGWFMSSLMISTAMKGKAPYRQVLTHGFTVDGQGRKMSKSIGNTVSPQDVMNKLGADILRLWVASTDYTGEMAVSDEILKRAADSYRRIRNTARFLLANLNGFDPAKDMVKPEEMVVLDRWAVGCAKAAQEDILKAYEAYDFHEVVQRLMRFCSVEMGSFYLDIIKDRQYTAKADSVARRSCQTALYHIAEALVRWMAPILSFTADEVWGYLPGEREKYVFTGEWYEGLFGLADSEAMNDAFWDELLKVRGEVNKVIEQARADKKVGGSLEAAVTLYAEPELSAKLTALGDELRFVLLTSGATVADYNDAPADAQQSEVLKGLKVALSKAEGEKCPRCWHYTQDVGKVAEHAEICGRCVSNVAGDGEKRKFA

Consider `CC[C@H](C)[C@H](N)C(=O)NS(=O)(=O)OC[C@H]1O[C@@H](CCn2nnc(-c3ccc(Oc4ccccc4)cc3)n2)[C@H](O)[C@@H]1O` [Compound X, [S-(R*,R*)]-3,6-anhydro-1,2-dideoxy-1-[5-(4-phenoxyphenyl)-2H-tetrazol-2-yl]-D-allo-heptitol 7-(2-amino-3-methyl-1-oxopentyl)sulfamate], for which the Protective % stood at 0% in assay [1] (4 mg/kg sc), 80% in assay [1] (20 mg/kg sc) and 100% in assay [1] (100 mg/kg sc). In addition, the “Number of Alive” value in assay [1] (4 mg/kg sc) was found to be 0; in assay [1] (20 mg/kg sc), 4; in assay [1] (100 mg/kg sc), 5. The ED50 in assay [1] (Streptococcus pyogenes, 168 h, sc, mice surviving 7 days after inoculation, multidrug resistant, read-out: PD50 (50% protective dose)) was determined as 16.5 mg/kg. Further, the IC50 – broadly, the concentration that inhibits the measured activity by half – in assay [2] was 1.3 nM.

(Values after patent publication US5726195A, “Aminoacyl adenylate mimics as novel antimicrobial and antiparasitic agents” (Cubist Pharmaceuticals, Inc., priority 1996, dated 1998).)
